Test results from patent US20200087625A1, “METHODS FOR ISOLATING, EXPANDING AND ADMINISTERING CANCER SPECIFIC CD8+ T CELLS” (priority 2017, published 2020).

Experiments:
[1] = system: primary tumor; settings: cited from earlier work
[2] = system: SCC7; experiment: SCC7 tumor model, 1V270 with systemic anti-PD-1 agent; assay type: in vivo, C3H mice; settings: day 21, flow cytometry
Experimental: FIGS. 2A-2F. […] C3H mice (n=5-8/group) were implanted with SCC7 and carcinoma cells 1A. Tumors and spleens were harvested on day 21 and T cells in TILs or spleens were analyzed by flow cytometry. (A and B) Tumor infiltrating CD8^+ T cells were gated on CD45^+CD3^+CD8^+ populations. Number of CD8^+ T cells (A) and IFNγ^+CD8^+ cells (B) per tumor volume (mm^3) were calculated and plotted. (C) Representative immunohistochemistry images of the tumors (day 21) stained for CD8 (red) and DAPI (blue). Scale bar: 20 μm. (D) Number of IFNγ^+CD8^+ T cells in spleens. Bars indicate mean±SEM. Each dot represents an individual animal and bars indicate mean±SEM in A, B and D. P*<0.05, **P<0.01 (Kruskal-Wallis test with Dunn's post hoc test), n=5-8/group. (E) Tumor volumes at the injected sites were plotted against the log of the number of IFNγ^+CD8^+ T cells in the tumor microenvironment. […] (F) The tumor volumes (day 21, injected side) were plotted against the log of the numbers of IFNγ^+CD8^+ T cells in the spleen.
FIGS. 3A-3E. […] (A-D) SCC7-bearing mice (n=4/group) were treated as described in FIG. 2. Tumors and spleens were harvested on day 21 and CD8^+ T cells were isolated using MACSMicroBead. RNA was isolated and next-generation sequencing was performed. (A) Representative data of TCR repertoire clonality of CD8^+ T cells. […]

[3] = system: CD8+ T cells; experiment: TCR repertoire analysis of CD8+ T cells from TILs and spleens; assay type: in vivo, BALB/c mice

In the case of `CCCCCCCCC=CCCCCCCCC(=O)OCC(COP(=O)(O)OCCNC(=O)c1ccc(Cn2c(=O)[nH]c3c(N)nc(OCCOC)nc32)cc1)OC(=O)CCCCCCCC=CCCCCCCCC` (stereo not shown) [1V270], the primary tumor growth ([1]; intratumoral administration) is given as “inhibits primary tumor growth”, the systemic cytokine induction ([1]; local (intratumoral) treatment) is given as “without causing systemic cytokine induction” and the “CD8+ population in TILs” value [2] is given as “increased CD8^+ population in TILs”. The “BUB overlap index between TILs and splenocytes” value ([3]; 1V270-treated tumor-exposed vs non-tumor exposed mice) was “significantly higher BUB indices”, the “number of shared clones in TILs” value ([3]; 1V270 treated tumor-exposed group vs no-tumor exposed group) was “eight-fold higher” and the “TCRα clonotypes shared by 3 or more individuals” value ([3]; non-tumor group) was 5. The “clonality of CD8+ T cells” value ([3]; secondarily challenged tumors) was “increased clonality of CD8^+ T cells”, the “TCRα clonotypes shared by 3 or more individuals” value ([3]; tumor-exposed group) was 31 and the “TCRβ clonotypes shared by 3 or more individuals” value ([3]; tumor-exposed group) was 11. The “frequency of shared clones” value ([3]; tumor-exposed vs non-tumor exposed mice) was “significantly higher in tumor-exposed mice than in non-tumor exposed mice”.
